Legend:
Assay in all cases: biochemical
Design in all cases: species or system HEK293/K-562/placenta mixed human extract; Kinobeads chemoproteomic competition binding, quantified by TMT LC-MS/MS, dose response up to 20 uM
[1] = target: STK17B (Homo sapiens, UniProt O94768)
[2] = target: NEK1 (Homo sapiens, UniProt Q96PY6)
[3] = target: CSNK1D (Homo sapiens, UniProt P48730)
[4] = target: ERBB4 (Homo sapiens, UniProt Q15303)
[5] = target: CSNK1G3 (Homo sapiens, UniProt Q9Y6M4)
[6] = target: MAP2K3 (Homo sapiens, UniProt P46734)
[7] = target: DDR2 (Homo sapiens, UniProt Q16832)
[8] = target: AAK1 (Homo sapiens, UniProt Q2M2I8)
[9] = target: STK35 (Homo sapiens, UniProt Q8TDR2)
[10] = target: HIPK3 (Homo sapiens, UniProt Q9H422)
[11] = target: GAK (Homo sapiens, UniProt O14976)
[12] = target: CSNK1A1 (Homo sapiens, UniProt P48729)
[13] = target: IKBKG (Homo sapiens, UniProt Q9Y6K9)
[14] = target: ADK (Homo sapiens, UniProt P55263)
[15] = target: MELK (Homo sapiens, UniProt Q14680)
[16] = target: DSTYK (Homo sapiens, UniProt Q6XUX3)
[17] = target: PRKCA (Homo sapiens, UniProt P17252)
[18] = target: BMX (Homo sapiens, UniProt P51813)
[19] = target: RIOK2 (Homo sapiens, UniProt Q9BVS4)
[20] = target: PDIK1L (Homo sapiens, UniProt Q8N165)
[21] = target: CHEK1 (Homo sapiens, UniProt O14757)

Chain of MAP2K3 (P46734 whole entry): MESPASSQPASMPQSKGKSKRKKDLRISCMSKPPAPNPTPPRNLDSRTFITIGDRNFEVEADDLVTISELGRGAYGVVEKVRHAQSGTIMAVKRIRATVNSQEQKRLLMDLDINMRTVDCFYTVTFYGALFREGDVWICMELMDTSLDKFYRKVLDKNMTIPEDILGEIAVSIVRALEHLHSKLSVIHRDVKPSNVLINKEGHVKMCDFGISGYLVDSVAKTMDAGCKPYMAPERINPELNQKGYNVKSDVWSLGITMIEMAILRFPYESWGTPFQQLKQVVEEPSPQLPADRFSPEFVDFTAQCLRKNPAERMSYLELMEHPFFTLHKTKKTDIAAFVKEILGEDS
Chain of PDIK1L (Q8N165 whole entry): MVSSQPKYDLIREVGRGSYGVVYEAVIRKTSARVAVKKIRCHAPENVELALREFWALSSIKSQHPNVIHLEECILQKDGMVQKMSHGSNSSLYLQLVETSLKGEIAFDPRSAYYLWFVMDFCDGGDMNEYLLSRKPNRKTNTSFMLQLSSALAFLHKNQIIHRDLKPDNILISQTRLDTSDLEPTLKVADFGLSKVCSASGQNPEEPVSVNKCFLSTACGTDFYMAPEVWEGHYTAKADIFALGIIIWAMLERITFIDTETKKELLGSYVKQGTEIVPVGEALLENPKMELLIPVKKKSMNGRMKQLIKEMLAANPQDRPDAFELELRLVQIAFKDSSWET
Chain of BMX (P51813 whole entry): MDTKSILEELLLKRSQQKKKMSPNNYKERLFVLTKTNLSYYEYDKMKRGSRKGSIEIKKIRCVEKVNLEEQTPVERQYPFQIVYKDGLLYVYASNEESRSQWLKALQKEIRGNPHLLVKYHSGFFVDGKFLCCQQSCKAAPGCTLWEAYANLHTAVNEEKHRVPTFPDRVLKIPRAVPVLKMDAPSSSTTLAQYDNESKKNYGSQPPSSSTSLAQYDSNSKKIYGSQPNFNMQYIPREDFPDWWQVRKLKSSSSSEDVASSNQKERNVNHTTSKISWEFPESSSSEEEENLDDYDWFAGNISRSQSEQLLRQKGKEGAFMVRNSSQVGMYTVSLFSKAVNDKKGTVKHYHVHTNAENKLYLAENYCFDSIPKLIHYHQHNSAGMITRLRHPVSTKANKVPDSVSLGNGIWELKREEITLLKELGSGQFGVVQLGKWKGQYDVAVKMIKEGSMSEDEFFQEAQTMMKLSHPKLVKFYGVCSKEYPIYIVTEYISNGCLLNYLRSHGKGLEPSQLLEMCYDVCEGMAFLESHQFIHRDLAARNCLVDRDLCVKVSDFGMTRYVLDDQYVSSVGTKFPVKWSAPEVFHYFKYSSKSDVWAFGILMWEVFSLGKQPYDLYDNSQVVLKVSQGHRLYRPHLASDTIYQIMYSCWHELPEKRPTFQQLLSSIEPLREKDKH
Chain of STK35 (Q8TDR2 whole entry): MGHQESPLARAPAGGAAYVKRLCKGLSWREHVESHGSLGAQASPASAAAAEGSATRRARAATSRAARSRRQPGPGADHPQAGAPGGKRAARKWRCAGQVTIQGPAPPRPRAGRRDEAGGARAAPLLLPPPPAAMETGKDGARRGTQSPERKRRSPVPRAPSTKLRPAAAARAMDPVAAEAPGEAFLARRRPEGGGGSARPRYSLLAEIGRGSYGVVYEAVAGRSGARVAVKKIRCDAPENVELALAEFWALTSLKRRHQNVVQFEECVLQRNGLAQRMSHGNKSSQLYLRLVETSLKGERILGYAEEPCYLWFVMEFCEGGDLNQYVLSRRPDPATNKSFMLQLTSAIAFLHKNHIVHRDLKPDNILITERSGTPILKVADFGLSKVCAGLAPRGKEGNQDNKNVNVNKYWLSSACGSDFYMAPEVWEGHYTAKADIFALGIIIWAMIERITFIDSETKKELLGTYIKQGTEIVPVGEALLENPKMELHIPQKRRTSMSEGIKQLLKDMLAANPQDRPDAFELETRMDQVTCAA
Chain of ERBB4 (Q15303 whole entry): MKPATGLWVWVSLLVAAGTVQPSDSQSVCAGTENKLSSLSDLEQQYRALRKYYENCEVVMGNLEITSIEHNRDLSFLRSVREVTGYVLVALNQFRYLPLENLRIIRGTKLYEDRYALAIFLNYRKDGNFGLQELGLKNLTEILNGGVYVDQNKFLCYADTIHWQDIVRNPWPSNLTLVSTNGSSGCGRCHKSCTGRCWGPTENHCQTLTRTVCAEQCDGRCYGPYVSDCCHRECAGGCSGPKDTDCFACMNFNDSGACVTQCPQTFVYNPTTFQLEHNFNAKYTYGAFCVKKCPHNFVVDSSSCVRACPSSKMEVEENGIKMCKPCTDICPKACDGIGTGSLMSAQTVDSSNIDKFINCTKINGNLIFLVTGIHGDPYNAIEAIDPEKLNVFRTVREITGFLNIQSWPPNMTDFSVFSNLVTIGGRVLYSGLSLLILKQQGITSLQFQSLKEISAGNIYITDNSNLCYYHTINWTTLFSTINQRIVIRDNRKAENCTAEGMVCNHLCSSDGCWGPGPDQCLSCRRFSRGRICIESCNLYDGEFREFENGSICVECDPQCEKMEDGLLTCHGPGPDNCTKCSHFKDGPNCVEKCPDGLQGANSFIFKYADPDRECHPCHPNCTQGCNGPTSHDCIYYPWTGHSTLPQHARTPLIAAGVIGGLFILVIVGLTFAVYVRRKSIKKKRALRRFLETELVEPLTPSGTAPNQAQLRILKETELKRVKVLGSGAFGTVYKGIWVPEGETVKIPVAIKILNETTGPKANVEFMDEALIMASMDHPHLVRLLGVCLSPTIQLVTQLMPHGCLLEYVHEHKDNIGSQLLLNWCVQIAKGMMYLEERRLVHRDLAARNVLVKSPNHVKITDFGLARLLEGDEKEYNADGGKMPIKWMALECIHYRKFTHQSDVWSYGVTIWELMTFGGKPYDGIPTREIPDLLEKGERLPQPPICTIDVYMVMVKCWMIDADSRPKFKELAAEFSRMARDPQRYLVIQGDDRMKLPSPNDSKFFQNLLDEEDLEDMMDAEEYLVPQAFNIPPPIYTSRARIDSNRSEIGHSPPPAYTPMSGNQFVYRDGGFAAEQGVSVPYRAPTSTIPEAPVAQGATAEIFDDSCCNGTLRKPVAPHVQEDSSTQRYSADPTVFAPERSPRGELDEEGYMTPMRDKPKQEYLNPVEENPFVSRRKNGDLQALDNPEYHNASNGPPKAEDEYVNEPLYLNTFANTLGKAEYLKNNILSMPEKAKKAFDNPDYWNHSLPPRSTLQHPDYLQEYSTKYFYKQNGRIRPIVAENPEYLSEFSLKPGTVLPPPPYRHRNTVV
Chain of AAK1 (Q2M2I8 whole entry): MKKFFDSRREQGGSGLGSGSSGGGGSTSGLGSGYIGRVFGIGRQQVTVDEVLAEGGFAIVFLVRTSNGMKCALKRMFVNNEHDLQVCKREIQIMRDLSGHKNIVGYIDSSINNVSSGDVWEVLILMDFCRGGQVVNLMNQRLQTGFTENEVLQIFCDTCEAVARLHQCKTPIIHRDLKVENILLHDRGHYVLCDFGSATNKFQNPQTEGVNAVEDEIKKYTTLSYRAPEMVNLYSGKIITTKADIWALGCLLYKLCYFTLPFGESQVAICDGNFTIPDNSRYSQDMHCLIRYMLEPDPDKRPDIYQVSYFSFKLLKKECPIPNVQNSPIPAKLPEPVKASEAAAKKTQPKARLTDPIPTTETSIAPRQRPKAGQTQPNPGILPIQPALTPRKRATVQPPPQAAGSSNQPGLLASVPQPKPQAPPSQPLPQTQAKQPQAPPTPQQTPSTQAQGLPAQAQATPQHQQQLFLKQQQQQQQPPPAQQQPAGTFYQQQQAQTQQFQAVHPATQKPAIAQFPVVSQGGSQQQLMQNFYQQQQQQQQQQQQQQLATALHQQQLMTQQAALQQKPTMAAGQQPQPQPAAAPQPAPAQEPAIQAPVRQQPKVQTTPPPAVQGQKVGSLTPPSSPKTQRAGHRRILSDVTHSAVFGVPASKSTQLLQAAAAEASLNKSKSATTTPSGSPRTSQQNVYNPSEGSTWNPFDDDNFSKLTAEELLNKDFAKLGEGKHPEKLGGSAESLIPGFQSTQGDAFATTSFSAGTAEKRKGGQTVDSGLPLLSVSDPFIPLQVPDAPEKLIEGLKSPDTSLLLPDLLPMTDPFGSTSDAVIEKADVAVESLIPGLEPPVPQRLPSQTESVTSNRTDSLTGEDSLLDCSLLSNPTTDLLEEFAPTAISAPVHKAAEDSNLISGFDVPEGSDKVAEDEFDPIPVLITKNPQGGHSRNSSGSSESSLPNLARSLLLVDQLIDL

IC50 [1]: ≥ 20 µM | IC50 [2]: ≥ 20 µM | IC50 [3]: ≥ 20 µM | IC50 [4]: ≥ 20 µM | IC50 [5]: ≥ 20 µM | IC50 [6]: ≥ 20 µM | IC50 [7]: ≥ 20 µM | IC50 [8]: ≥ 20 µM | IC50 [9]: ≥ 20 µM | IC50 [10]: ≥ 20 µM | IC50 [11]: 9.9 µM | IC50 [12]: ≥ 20 µM | IC50 [13]: ≥ 20 µM | IC50 [14]: ≥ 20 µM | IC50 [15]: ≥ 20 µM | IC50 [16]: ≥ 20 µM | IC50 [17]: ≥ 20 µM | IC50 [18]: ≥ 20 µM | IC50 [19]: ≥ 20 µM | IC50 [20]: ≥ 20 µM | IC50 [21]: ≥ 20 µM
SMILES: COc1ccccc1-c1n[nH]c2nc(N[C@H]3CC[C@H](NS(=O)(=O)CCC(F)(F)F)CC3)nc(OC)c12 [compound 31, 3,3,3-Trifluoro-N-(trans-4-((4-methoxy-3-(2-methoxyphenyl)-1H-pyrazolo[3,4-d]pyrimidin-6-yl)amino)cyclohexyl)propane-1-sulfonamide]

Reference: paper PMC6407917, “Identification of GSK3186899/DDD853651 as a Preclinical Development Candidate for the Treatment of Visceral Leishmaniasis” (Journal of Medicinal Chemistry, 2018)
